Values of other authors as cited in PMC9884426, “A phase 1 clinical trial of the repurposable acetyllysine mimetic, n-methyl-2-pyrrolidone (NMP), in relapsed or refractory multiple myeloma” (Clinical Epigenetics, 2023).

Set-up: method as in PMID 9029058
Settings: human, cited from earlier work; for elimination half-life: NMP metabolites; for amount found in urine: after a single 100 mg oral dose of NMP

| Structure (SMILES) | elimination half-life | amount found in urine |
| --- | --- | --- |
| CN1C(=O)CC(O)C1=O (centres unmarked) [2-HMSI, 2-hydroxy-N-methylsuccinimide] | 17 h | 20% |
| CN1C(=O)CCC1O (centres unmarked) [5-HNMP, 5-hydroxy-N-methyl-2-pyrrolidone] |  | 44% |
| CN1C(=O)CCC1=O [MSI, N-methylsuccinimide] | 8 h | 0.4% |
